*1 amine or outer side, *2 acyl side, *3 side chain or, on linkers, in order; H or OH if unused. Where a SMILES comes first, the peptide text is derived from it. Bridges are numbered along the chain shown (N, C = ends). [ ]: non-standard residue; d: D form. The star is where a group is joined. X48 = CCCC[C@@H](/C=C\[C@@H](Cc1cccnc1)C(=O)[*:2])N[*:1]; NMeNva(5-imidazol-1-yl) = CN[C@@H](CCCn1ccnc1)C(=O)O; Phe(4-guanidino) = N=C(N)Nc1ccc(C[C@H](N)C(=O)O)cc1; X19 = C[C@H](c1ccccc1)[C@@H](C(=O)[*:2])N(C)[*:1]; X59 = O=C([C@H](Cc1ccc(CN2CCCC2)cc1)N[*:1])[*:2]; X78 = Nc1ccnc2ccc(C[C@H](N[*:1])C(=O)[*:2])cc12; Ala(pyrimidin-5-yl) = N[C@@H](Cc1cncnc1)C(=O)O; X71 = COc1c(F)cc(C[C@H](N[*:1])C(=O)[*:2])cc1F; X6 = O=C([C@H](Cc1cnn(C2COC2)c1)N[*:1])[*:2]; NMe3Pal(5-F) = CN[C@@H](Cc1cncc(F)c1)C(=O)O; Bip = N[C@@H](Cc1ccc(-c2ccccc2)cc1)C(=O)O; Ethyl(2-pyrrolidin-1-yl) = C1CCN(CC*)C1; X11 = CC(C)(F)CC[C@H](N[*:1])C(=O)[*:2]; X46 = O=C([C@H](Cc1cccnc1F)N[*:1])[*:2]; Nle(5,5-F2) = CC(F)(F)CC[C@H](N)C(=O)O; NHCH2CH2SCH2CO = O=C(CSCCN[*:1])[*:2]; X21 = O=C([C@@H]1C[C@H]1CN[*:1])[*:2]; Phe(2-F) = N[C@@H](Cc1ccccc1F)C(=O)O; X31 = O=C([C@H](CCC1CC1)N[*:1])[*:2]; NMe3Pal = CN[C@@H](Cc1cccnc1)C(=O)O; X1 = O=C(C12CC(CN[*:1])(C1)C2)[*:2]; hTyr = N[C@@H](CCc1ccc(O)cc1)C(=O)O; Ala(cPr) = N[C@@H](CC1CC1)C(=O)O; NMeF = CN[C@@H](Cc1ccccc1)C(=O)O; PhLac = O=C(O)[C@@H](O)Cc1ccccc1; 3Pal = N[C@@H](Cc1cccnc1)C(=O)O; Ahp(2) = CCCCC[C@H](N)C(=O)O; Cba = N[C@@H](CC1CCC1)C(=O)O; hLeu = CC(C)CC[C@H](N)C(=O)O; hLys = NCCCCC[C@H](N)C(=O)O; αMeC = C[C@](N)(CS)C(=O)O; NMeA = CN[C@@H](C)C(=O)O; Nle = CCCC[C@H](N)C(=O)O; Nva = CCC[C@H](N)C(=O)O

Sequence of KRAS-G12D protein (P01116 1-188 isoform P01116-2 G12D): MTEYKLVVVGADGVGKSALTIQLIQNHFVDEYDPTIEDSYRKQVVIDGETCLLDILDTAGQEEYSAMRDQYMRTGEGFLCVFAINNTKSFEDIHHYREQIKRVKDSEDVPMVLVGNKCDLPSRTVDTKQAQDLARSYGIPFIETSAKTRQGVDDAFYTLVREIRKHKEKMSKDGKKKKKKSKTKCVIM

The experiment addresses KRAS-G12D protein (Homo sapiens, UniProt P01116, G12D). In words: SOS-mediated nucleotide exchange assay (BODIPY-GDP / Tb-streptavidin TR-FRET). It counts as biochemical.
Compound `CCCC[C@@H]1NC(=O)[C@H](CCCCCN)NC(=O)[C@H](CCCNC(=N)N)NC(=O)[C@H](Cc2ccccc2)NC(=O)CSCCNC(=O)[C@H](Cc2ccccc2)N(C)C(=O)[C@H](CCc2ccc(O)cc2)NC(=O)[C@H](Cc2ccc(-c3ccccc3)cc2)NC1=O` [compound 194, cyclo(F-R-hK-Nle-Bip-hY-NMeF-Cysteamine-ClAc)] (cyclo([Bip][hTyr][NMeF][NHCH2CH2SCH2CO]FR[hLys][Nle])) came in with a 50% effective concentration (EC50) of 4490 nM.
The figure for `CCCCC[C@@H]1NC(=O)[C@H](Cc2ccc(OC)cc2)NC(=O)[C@H](CC2CCC2)NC(=O)[C@H](Cc2ccc(OCCN3CCCC3)cc2)NC(=O)[C@H](CCCNC(=N)N)NC(=O)[C@H](Cc2ccccc2)NC(=O)CSC[C@@](C)(C(N)=O)NC(=O)[C@H](Cc2ccccc2)N(C)C1=O` [compound 383, cyclo(F-R-TyrOEtPyr-cBuA-TyrOMe-Ahp-NMeF-aMeCl-ClAc)] ({CH2CO}-FRY(Ethyl(2-pyrrolidin-1-yl))[Cba]Y(Me)[Ahp(2)][NMeF][αMeC]-NH2; thioether N-8) is 9.79 nM.
Consider `CC(C)CC[C@@H]1NC(=O)[C@H](Cc2ccccc2F)NC(=O)[C@H](CC2CC2)NC(=O)[C@H](Cc2cnn(C3COC3)c2)NC(=O)[C@H](C)N(C)C(=O)[C@H](Cc2ccccc2)OC(=O)C23CC(CNC(=O)[C@H](Cc4cccnc4)N(C)C1=O)(C2)C3` [compound 301, cyclo(FLac-NMeA-AlaPyz1Ox-cPrA-Phe2F-hL-NMe3Pal-amBCP)] (cyclo([Ala(cPr)][Phe(2-F)][hLeu][NMe3Pal][X1][PhLac][NMeA][X6])), for which the EC50 was determined as 2.17 nM.
Compound `CC(C)CC[C@@H]1NC(=O)[C@H](Cc2ccccc2F)NC(=O)[C@H](CC2CC2)NC(=O)[C@H](Cc2cccnc2)NC(=O)[C@H](C)N(C)C(=O)[C@H](Cc2ccccc2)OC(=O)C23CC(CNC(=O)[C@H](Cc4cncc(F)c4)N(C)C1=O)(C2)C3` [compound 283, cyclo(FLac-NMeA-3Pal-cPrA-Phe2F-hL-NMe3Pal5F-amBCP)] (cyclo([3Pal][Ala(cPr)][Phe(2-F)][hLeu][NMe3Pal(5-F)][X1][PhLac][NMeA])) gave an EC50 of 3 nM.
`CCCC[C@H]1/C=C\[C@@H](Cc2cccnc2)C(=O)NCC23CC(C2)(C3)C(=O)O[C@@H](Cc2ccccc2)C(=O)N(C)[C@@H](C)C(=O)N[C@@H](Cc2cncnc2)C(=O)N[C@@H](CCCC)C(=O)N[C@@H](Cc2ccccc2F)C(=O)N1` [SEQ ID NO: 137, cyclo(FLac-NMeA- PyrimAla-Nle-Phe2F- Nlecalken3Pal-amBCP)] (cyclo([NMeA][Ala(pyrimidin-5-yl)][Nle][Phe(2-F)][X48][X1][PhLac])): the EC50 stood at 590 nM.
The result for `CCCCC[C@@H]1NC(=O)[C@H](Cc2ccc(OC)cc2)NC(=O)[C@H](CC2CCC2)NC(=O)[C@H](Cc2ccc(N3CCC[C@@H]3CN)cc2)NC(=O)[C@H](CCCNC(=N)N)NC(=O)[C@H](Cc2ccccc2)NC(=O)CSC[C@@](C)(C(N)=O)NC(=O)[C@H](Cc2ccccc2)N(C)C1=O` [compound 391, cyclo(F-R~Phe4RamPyrr-cBuA-TyrOMe-Abp-NMeF-aMeCl-ClAc)] reads 6.78 nM; that for `CCCC[C@@H]1NC(=O)[C@H](Cc2cc(F)c(OC)c(F)c2)NC(=O)[C@H](C)N(C)C(=O)[C@H](Cc2ccccc2)OC(=O)C23CC(CNC(=O)[C@H](Cc4ccccc4)N(C)C(=O)[C@H](CCCC)NC(=O)[C@H](Cc4ccccc4F)NC1=O)(C2)C3` [compound 310, cyclo(FLac-NMeA-TyrOMe35F2-Nle-Phe2F-Nle-NMeF-amBCP)] (cyclo([NMeA][X71][Nle][Phe(2-F)][Nle][NMeF][X1][PhLac])), 140 nM; that for `CC(C)CC[C@@H]1NC(=O)[C@H](Cc2cccnc2F)NC(=O)[C@H](CC2CC2)NC(=O)[C@H](Cc2cncnc2)NC(=O)[C@H](C)N(C)C(=O)[C@H](Cc2ccccc2)OC(=O)C23CC(CNC(=O)[C@H](Cc4ccccc4)N(C)C1=O)(C2)C3` [compound 215, cyclo(FLac-NMeA-PyrimAla-cPrA-3Pal2F-hL-NMeF-amBCP)] (cyclo([Ala(cPr)][X46][hLeu][NMeF][X1][PhLac][NMeA][Ala(pyrimidin-5-yl)])), 31 nM.
The result for `CCCCC[C@@H]1NC(=O)[C@H](Cc2ccc(OC)cc2)NC(=O)[C@H](CC2CCC2)NC(=O)[C@H](CCCCCN)NC(=O)[C@H](CCCNC(=N)N)NC(=O)[C@H](Cc2ccccc2)NC(=O)CSC[C@@](C)(C(N)=O)NC(=O)[C@H](Cc2ccccc2)N(C)C1=O` [compound 348, cyclo(F-R-hK-cBuA-TyrOMe-Ahp-NMeF-aMeCl-ClAc)] ({CH2CO}-FR[hLys][Cba]Y(Me)[Ahp(2)][NMeF][αMeC]-NH2; thioether N-8) reads 45.8 nM.
For `COc1ccc(C[C@@H]2NC(=O)[C@H](CC3CCC3)NC(=O)[C@H](Cc3cccnc3)NC(=O)[C@H](CCCNC(=N)N)NC(=O)[C@H](Cc3ccccc3)NC(=O)CSC[C@](C)(C(N)=O)NC(=O)[C@@H]3CCCCCCC[C@H](NC2=O)C(=O)N3C)cc1` [SEQ ID NO: 192, cyclo(F-R-3Pal-cBuA-TyrOMe-AheNMeHag-aMeC-C1Ac)], the midpoint of the response, the EC50, lay at 127 nM.
The result for `COc1ccc(C[C@@H]2NC(=O)[C@H](CC3CCC3)NC(=O)[C@H](Cc3cccnc3)NC(=O)[C@H](CCCNC(=N)N)NC(=O)[C@H](Cc3ccccc3)NC(=O)CSC[C@](C)(C(N)=O)NC(=O)[C@@H]3CCCCCC[C@H](NC2=O)C(=O)N3C)cc1` [SEQ ID NO: 188, cyclo(F-R-3Pal-cBuA-TyrOMe-RdHagNMeHag-aMeC-C1Ac)] reads 299 nM.
Consider `C[C@H]1C(=O)N[C@@H](Cc2cncnc2)C(=O)N[C@@H](CC2CCC2)C(=O)N[C@@H](Cc2ccccc2F)C(=O)N[C@@H](CCC2CC2)C(=O)N(C)[C@@H](Cc2ccccc2)C(=O)NCC23CC(C2)(C3)C(=O)O[C@@H](Cc2ccccc2)C(=O)N1C` [compound 115, cyclo(FLac-NMeA-PyrimAla-cBuA-Phe2F-hcPrA-NMeF-amBCP)] (cyclo([Cba][Phe(2-F)][X31][NMeF][X1][PhLac][NMeA][Ala(pyrimidin-5-yl)])), for which the EC50 was 4 nM.
On to `CCCC[C@@H]1NC(=O)[C@H](Cc2ccc(CN3CCCC3)cc2)NC(=O)[C@H](CCCn2ccnc2)N(C)C(=O)[C@H](Cc2ccccc2)NC(=O)C23CC(CNC(=O)[C@H](Cc4cccnc4)N(C)C(=O)[C@H](CCCC)NC(=O)[C@H](Cc4ccccc4F)NC1=O)(C2)C3` [compound 263, cyclo(F-NMeNvaImid-Phe4cPyrr-Nle-Phe2F-Nle-NMe3Pal-amBCP)] (cyclo(F[NMeNva(5-imidazol-1-yl)][X59][Nle][Phe(2-F)][Nle][NMe3Pal][X1])), for which the EC50 was found to be 42.1 nM.
The result for `CCCCC[C@@H]1NC(=O)[C@H](Cc2ccc(OC)cc2)NC(=O)[C@H](CC2CCC2)NC(=O)[C@H](Cc2ccc(N3CCC[C@H]3CN)cc2)NC(=O)[C@H](CCCNC(=N)N)NC(=O)[C@H](Cc2ccccc2)NC(=O)CSC[C@@](C)(C(N)=O)NC(=O)[C@H](Cc2ccccc2)N(C)C1=O` [compound 392, cyclo(F-R-Phe4SamPyrr-cBuA-TyrOMe-Ahp-NMeF-aMeCl-ClAc)] reads 8.59 nM; that for `CCCC[C@@H]1NC(=O)[C@H](Cc2cccnc2)NC(=O)[C@H](C)N(C)C(=O)[C@H](Cc2ccccc2)OC(=O)C23CC(CNC(=O)[C@H](Cc4cccnc4)N(C)C(=O)[C@H](CCC)NC(=O)[C@H](Cc4ccccc4F)NC1=O)(C2)C3` [compound 116, cyclo(FLac-NMeA-3Pal-Nle-Phe2F-Nva-NMe3Pal-amBCP)] (cyclo([3Pal][Nle][Phe(2-F)][Nva][NMe3Pal][X1][PhLac][NMeA])), 154 nM.
The figure for `CCCC[C@@H]1NC(=O)[C@H](Cc2cccnc2)NC(=O)[C@H](CCCn2ccnc2)N(C)C(=O)[C@H](Cc2ccccc2)N(C)C(=O)[C@@H]2C[C@H]2CNC(=O)[C@H](Cc2cccnc2)N(C)C(=O)[C@H](CCCC)NC(=O)[C@H](Cc2ccccc2F)NC1=O` [compound 256, cyclo(NMeF-NMeNvaImid-3Pal-Nle-Phe2F-Nle-NMe3Pal-tamcPr)] (cyclo([3Pal][Nle][Phe(2-F)][Nle][NMe3Pal][X21][NMeF][NMeNva(5-imidazol-1-yl)])) is 7650 nM; for `C[C@H]1C(=O)N[C@@H](Cc2cncnc2)C(=O)N[C@@H](CC2CCC2)C(=O)N[C@@H](Cc2ccccc2F)C(=O)N[C@@H](CCC(C)(F)F)C(=O)N(C)[C@@H](Cc2ccccc2)C(=O)NCC23CC(C2)(C3)C(=O)O[C@@H](Cc2ccccc2)C(=O)N1C` [compound 224, cyclo(FLac-NMcA-PyrimAla-cBuA-Phe2F-Nle3F2-NMeF-amBCP)] (cyclo([Cba][Phe(2-F)][Nle(5,5-F2)][NMeF][X1][PhLac][NMeA][Ala(pyrimidin-5-yl)])) it is 2.39 nM; for `CC(C)CC[C@@H]1NC(=O)[C@H](Cc2ccccc2F)NC(=O)[C@H](CC2CC2)NC(=O)[C@H](Cc2cncnc2)NC(=O)[C@H](C)N(C)C(=O)[C@H](Cc2ccccc2)OC(=O)C23CC(CNC(=O)[C@H](Cc4cncc(F)c4)N(C)C1=O)(C2)C3` [compound 282, cyclo(FLac-NMeA-PyrimAla-cPrA-Phe2F-hL-NMe3Pal5F-amBCP)] (cyclo([Ala(cPr)][Phe(2-F)][hLeu][NMe3Pal(5-F)][X1][PhLac][NMeA][Ala(pyrimidin-5-yl)])) it is 2 nM.
`CCCC[C@@H]1NC(=O)[C@H](Cc2ccc(OC)cc2)NC(=O)[C@H](CC(C)C)NC(=O)[C@H](Cc2ccc(NC(=N)N)cc2)NC(=O)[C@H](Cc2ccc3nccc(N)c3c2)NC(=O)[C@H](Cc2ccccc2)NC(=O)CSC[C@@H](C(N)=O)NC(=O)[C@H](Cc2ccccc2)N(C)C1=O` [compound 29, cyclo(F-6Quin4NH2-Phe4Gn-L-TyrOMe-Nle-NMeF-Cl-ClAc)] ({CH2CO}-F[X78][Phe(4-guanidino)]LY(Me)[Nle][NMeF]C-NH2; thioether N-8) had an EC50 of 7790 nM.
The figure for `C[C@H](c1ccccc1)[C@H]1C(=O)NCC23CC(C2)(C3)C(=O)O[C@@H](Cc2ccccc2)C(=O)N(C)[C@@H](C)C(=O)N[C@@H](Cc2cncnc2)C(=O)N[C@@H](CC2CC2)C(=O)N[C@@H](Cc2ccccc2F)C(=O)N[C@@H](CCC(C)(C)F)C(=O)N1C` [compound 341, cyclo(FLac-NMeA-PyrimAla-cPrA-Phe2F-hL3F-NMeRbMeF-amBCP)] (cyclo([Ala(cPr)][Phe(2-F)][X11][X19][X1][PhLac][NMeA][Ala(pyrimidin-5-yl)])) is 1370 nM.

The values above are taken from patent US20260001914A1, “MACROCYCLIC PEPTIDES TARGETING KRAS” (Merck Sharp & Dohme LLC, priority 2022, published 2026).
